# Experimental data: patent US9771342B2, “Monascuspurpurones, preparation process thereof, and uses of the monascuspurpurones” (Food Industry Research and Development Institute, priority 2010, dated 2017)
# What was measured:
# 3T3-L1 preadipocytes = experiment: Enhancement of 3T3-L1 preadipocyte differentiation in insulin differentiation model (AdipoRed staining / triglyceride); type: cell-based; settings: for Oil Red assay (% of control): insulin model, 3T3-L1 differentiation
# Method: Preadipocytes were prepared according to the method described by Wald et al., (2007, “The small molecule harmine is an antidiabetic cell-type-specific regulator of PPARγ expression.” Cell Metabolism, 5(5): 357-370). Preadipocytes were cultured in DMEM (Dulbecco's Modified Eagle's Medium-high glucose, Sigma D-7777) containing 10% of fetal bovine serum (FBS) and incubated at 37° C. in a 5% CO2 incubator.
# Before the differentiation induction experiments, the cells were plated into either 96- or 24-well plates (the concentration of cells in each well was about 2×10^4/cm^2). The plates were incubated for about two days to allow the cells to proliferate to confluence, and then maintained for another two days. The medium was changed to different differentiation media according to different experiments. The day of switching to differentiation medium was designated as day zero.
# The differentiation medium used in insulin differentiation model was DMEM with 10% FBS comprising 10 μg/ml of insulin. Differentiation media with various concentrations of Compound 1 were added to each well of the 24- or 96-well 3T3-L1 preadipocyte plates (the final concentration of Compound 1 in each well was 2 μg/ml, 5 μg/ml, 10 μg/ml, and 20 μg/ml, respectively). The control group was the culture with only the differentiation medium and no sample. The cultures were incubated at 37° C. in a 5% CO2 incubator for seven days (during the period, the differentiation medium and sample were replaced with fresh ones twice), and then the medium was replaced by DMEM with 10% FBS. The cultures were maintained until day 9 or day 10 . The cells of the experiment groups and control groups at day 9 or day 10 were stained with AdipoRed and the concentrations of triglyceride were analyzed.
# The 96-well plates were rinsed with PBS, and 200 μl of PBS and 5 μl of AdipoRed reagent (Lonze Walkersville, Inc., Walkersville, Md., USA, Catalog No. PT-7009) were added to each well. After 10 to 15 minutes, the plates were read with a spectrofluorometer (Infinite M200) set at an excitation wavelength of 485 nm and an emission wavelength of 572 nm. The fluorescent data of the experiment group was divided by the fluorescent data of the control group to obtain a percentage of induction activity.
# The 24-well plates were rinsed with PBS, and the cells were washed off with 0.1 ml of 1% Triton X 100 per well. The cells were then frozen, thawed and centrifuged (10,000 rpm/5 min) and the supernatant was collected. An aliquot of 0.05 ml of the supernatant was analyzed using Triglycerol assay Kit (Audit Diagnostics, Ltd.).
# The protein amounts were analyzed using Bio-Rad Dc Protein assay reagent (Bio-Rad). […]
# PPARγ-LBD = target: T1, PPARγ-LBD (Homo sapiens, UniProt P37231); experiment: LanthaScreen TR-FRET PPAR Competitive Binding Assay; settings: tested at 10-160 μg/ml, 2 hours at room temperature
# T1 construct: 10 μL 4× PPARγ-LBD/Tb-anti-GST Ab; purchased Invitrogen PV4894
# T1 sequence (P37231 238-503 limits assumed): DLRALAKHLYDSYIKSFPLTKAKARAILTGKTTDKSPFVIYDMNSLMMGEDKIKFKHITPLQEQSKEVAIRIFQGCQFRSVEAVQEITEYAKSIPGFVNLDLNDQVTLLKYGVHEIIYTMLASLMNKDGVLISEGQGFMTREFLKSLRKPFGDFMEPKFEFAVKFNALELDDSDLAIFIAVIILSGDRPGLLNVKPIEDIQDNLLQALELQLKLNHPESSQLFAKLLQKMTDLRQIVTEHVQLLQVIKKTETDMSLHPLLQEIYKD
# Method: 10, 20, 40, 80 and 160 μg/ml of Compound 1 were tested in the ligand binding assay conducted following the manuals described in LanthaScreen TR-FRET PPAR Competitive Binding Assay kits (Invitrogen New York, N.Y. Catalog no. PV4894). In a 96-well microtiter plate, the reagents were pipetted into each well in the following order: 20 μL 2× Test Compound, 10 μL 4× Fluormone™ Pan-PPAR Green and 10 μL 4× PPARγ-LBD/Tb-anti-GST Ab in a total assay volume of 40 μl/well. The reagents were gently mixed by placing the microtiter plate on an orbital plate shaker for 30 seconds. The samples were incubated at room temperature (20-25° C.) for 2 hours in the dark allowing the binding of the samples to reach equilibrium. The fluorescent emission signal of each well was measured at 495 nm and 520 nm with an Absorbance Microplate Reader (Spectra Max M5 from Molecular Devices LLC).
# 3T3-L1 cells = experiment: Quantitative real-time PCR of adipocyte differentiation related gene expression; type: cell-based
# Method: The upstream genes that regulate adipocyte differentiation have been previously reported (F. M. Gregoire, C. M. Smas and H. S. Sul, Understanding adipocyte differentiation. Physiological Reviews, 783 (1998), pp. 783-809.) Among them, aP2, LPL, PPARγ, adiponectin, GLUT4, GLUT1, and C/EBPα were assayed to monitor the regulation of 3T3-L1 preadipocyte differentiation. The housekeeping genes of β-actin and Glyceraldehyde 3-phosphate dehydrogenase (GADPH) were used as control. “do” represents the conditions of the 3T3-L1 preadipocytes before adding inducing agents. In the “NC” groups, the 3T3-L1 preadipocytes were not treated with any inducing agent. Both “do” and “NC” groups were the control groups. In the groups of “insulin,” “E,” and “troglitazone,” the 3T3-L1 preadipocytes were induced with insulin, Compound 1 and insulin, and troglitazone, respectively.
# After culturing the 3T3-L1 cells for 9 days, insulin, Compound 1 and insulin, and troglitazone were added to the medium. The cells were further cultivated, and the samples were collected on day 4 (early adipocyte differentiation stage), day 7 (middle stage) and day 9 (late stage) for the following assays.
# Total RNA was extracted from 3T3-L1 cells using TRIZOL reagent according to the manufacturer's instructions (GIBCO 15596-026; Molecular Research Center, Inc). 4 μg of total RNA from each sample were reverse-transcribed to cDNA according to the protocol of the reverse transcript system [RevertAid H Minus First Strand cDNA Synthesis Kit (Fementas K1632)] with the oligo (dT)18 primers. A TaqMan One-Step RT-PCR Master Mix reagent kit and inventory primer and probes (Applied Biosystems, Foster, Calif.) were applied for the quantitative real-time PCR followed by a TaqMan gene expression assay. The sequences aP2 (Mm00445878_ml), LPL (Mm00434770_ml), PPARγ (Mm01184322_ml), adiponectin (Mm00456425_ml), GLUT4 (Mm01245502_ml), GLUT1 (Mm01192270_ml), C/EBPα (Mm01265914_sl), C/EBPδ (Mm00786711_sl), β-actin (Mm01205647_gl) and GADPH (Mm99999915_gl) were amplified in the PCR. Levels of mRNAs for housekeeping genes (β-actin and GADPH) were also measured by the real-time PCR. After cDNA synthesis, the quantitative real-time PCR was performed with the ABI Prism 7300 instrument (Applied Biosystems, Foster City, Calif., USA) according to the manufacturer's protocol. The PCR conditions were 1 cycle of 50 ° C. for 2 min, then 95 ° C. for 10 min, followed by 40 cycles of 95 ° C. for 15 seconds and 60 ° C. for 1 min. The quantification was performed in duplicate and the experiments were repeated independently three times.
# [1] = day 4 (early stage), Compound 1 and insulin vs insulin group
# [2] = day 7 (middle stage), Compound 1 and insulin vs insulin group
# [3] = day 9 (late stage), Compound 1 and insulin vs insulin group
# [4] = early, middle and late adipocyte differentiation stages
substance,measurement,setting,value
"rel-(1S,7aR,3aR)-1-Hexanoyl-5,13-dimethyl-6-(2-oxopentyl)-7a,7-dihydrobenzofuran-2,4-dione [Compound 1]",Oil Red assay (% of control),3T3-L1 preadipocytes; 2 μg/ml,127 ± 4 % of control
same,Oil Red assay (% of control),3T3-L1 preadipocytes; 5 μg/ml,140 ± 5 % of control
same,Oil Red assay (% of control),3T3-L1 preadipocytes; 10 μg/ml,148 ± 8 % of control
same,"triglyceride droplets in differentiated adipocytes, inverted microscope","3T3-L1 preadipocytes; 2, 5 and 10 μg/ml vs control culture (insulin only), FIG. 4",more triglyceride droplets than the control culture
same,PPARγ binding IC50,PPARγ-LBD,68 ± 21 µg/mL
same,"expression of C/EBPα, increase compared to insulin group",3T3-L1 cells; [1],about 50%
same,expression of GluT1 relative to insulin group,3T3-L1 cells; [1],0.6 fold
same,"expression of PPARγ, increase compared to insulin group",3T3-L1 cells; [1],about 50%
same,"expression of adiponectin, increase compared to insulin group",3T3-L1 cells; [1],about 50%
same,expression of GluT1 relative to insulin group,3T3-L1 cells; [2],0.3 fold
same,expression of LPL relative to insulin group,3T3-L1 cells; [2],0.3 fold
same,expression of PPARγ relative to insulin group,3T3-L1 cells; [2],1.8 fold
same,expression of aP2 relative to insulin group,3T3-L1 cells; [2],0.3 fold
same,expression of GluT1 relative to insulin control,"3T3-L1 cells; day 9 (late stage), Compound 1 and insulin vs insulin control",0.6 fold
same,expression of C/EBPα relative to insulin group,3T3-L1 cells; [3],1.59 folds
same,expression of PPARγ relative to insulin group,3T3-L1 cells; [3],1.35 folds
same,expression of adiponectin relative to insulin group,3T3-L1 cells; [3],1.49 folds
same,"effect on the expression of aP2, LPL, adiponectin, GLUT4, and GLUT1",3T3-L1 cells; [4],little effect
same,effect on the expressions of PPARγ and C/EBPα,3T3-L1 cells; [4],can stimulate the expressions of PPARγ and C/EBPα
